Reference: ChEMBL document CHEMBL5331057, “A decade of approved first-in-class small molecule orphan drugs: Achievements, challenges and perspectives” (Eur J Med Chem, 2022)
In brackets after ≈: the same amount, converted by molar mass.

Tests used:
HepG2 = experiment: cells; settings: Homo sapiens, HepG2, read-out: ED50
Methionine synthase = Methionine synthase (Homo sapiens, UniProt Q99707); experiment: Inhibition of MTR (unknown origin)
[1] = biological target: Cystic fibrosis transmembrane conductance regulator (Homo sapiens, UniProt P13569, F508DEL)
Cystic fibrosis transmembrane conductance regulator, sequence (P13569 as listed by the source): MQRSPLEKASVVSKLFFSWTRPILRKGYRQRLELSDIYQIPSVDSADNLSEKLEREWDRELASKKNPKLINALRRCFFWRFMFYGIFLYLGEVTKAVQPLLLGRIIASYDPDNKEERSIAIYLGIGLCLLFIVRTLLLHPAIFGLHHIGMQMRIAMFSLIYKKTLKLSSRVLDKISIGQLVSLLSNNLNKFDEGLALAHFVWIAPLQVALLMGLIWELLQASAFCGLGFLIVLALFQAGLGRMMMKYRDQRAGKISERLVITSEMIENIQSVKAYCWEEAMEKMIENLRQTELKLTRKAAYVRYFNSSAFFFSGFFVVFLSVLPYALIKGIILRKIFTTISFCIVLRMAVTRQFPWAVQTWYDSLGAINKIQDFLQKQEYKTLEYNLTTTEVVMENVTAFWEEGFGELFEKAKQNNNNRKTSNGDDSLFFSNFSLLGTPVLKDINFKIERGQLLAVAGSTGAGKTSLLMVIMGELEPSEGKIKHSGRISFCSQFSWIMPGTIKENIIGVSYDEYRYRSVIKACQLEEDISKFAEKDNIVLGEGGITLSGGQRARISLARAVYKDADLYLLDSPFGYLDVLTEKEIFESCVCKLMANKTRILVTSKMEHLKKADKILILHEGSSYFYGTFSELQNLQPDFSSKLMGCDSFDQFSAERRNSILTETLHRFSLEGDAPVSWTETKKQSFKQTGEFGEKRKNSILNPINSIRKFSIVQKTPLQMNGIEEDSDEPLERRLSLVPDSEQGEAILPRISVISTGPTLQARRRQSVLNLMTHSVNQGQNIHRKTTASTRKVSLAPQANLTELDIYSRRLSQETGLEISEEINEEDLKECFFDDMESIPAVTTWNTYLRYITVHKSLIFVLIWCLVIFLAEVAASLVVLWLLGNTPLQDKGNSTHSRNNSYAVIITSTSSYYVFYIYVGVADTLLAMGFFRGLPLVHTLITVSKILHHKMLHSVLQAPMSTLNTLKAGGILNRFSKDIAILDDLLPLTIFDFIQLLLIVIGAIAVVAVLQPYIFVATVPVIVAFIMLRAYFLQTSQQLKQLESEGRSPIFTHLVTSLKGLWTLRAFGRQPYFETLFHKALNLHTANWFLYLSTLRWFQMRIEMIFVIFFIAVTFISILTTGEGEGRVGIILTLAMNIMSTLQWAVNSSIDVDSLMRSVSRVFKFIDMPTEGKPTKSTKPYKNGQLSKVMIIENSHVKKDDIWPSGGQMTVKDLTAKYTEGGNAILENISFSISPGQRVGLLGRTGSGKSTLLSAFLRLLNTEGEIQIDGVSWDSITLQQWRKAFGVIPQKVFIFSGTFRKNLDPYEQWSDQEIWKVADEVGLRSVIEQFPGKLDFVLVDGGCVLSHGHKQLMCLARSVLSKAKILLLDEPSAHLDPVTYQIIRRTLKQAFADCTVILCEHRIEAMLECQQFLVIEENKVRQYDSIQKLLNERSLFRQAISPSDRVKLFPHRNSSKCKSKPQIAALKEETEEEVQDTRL

Exportin-1 [2] = biological target: T1, Exportin-1 (Homo sapiens, UniProt O14980); experiment: Inhibition of XPO1 in human HPBALL cells; assay type: cell-based
T1 sequence (O14980 whole entry): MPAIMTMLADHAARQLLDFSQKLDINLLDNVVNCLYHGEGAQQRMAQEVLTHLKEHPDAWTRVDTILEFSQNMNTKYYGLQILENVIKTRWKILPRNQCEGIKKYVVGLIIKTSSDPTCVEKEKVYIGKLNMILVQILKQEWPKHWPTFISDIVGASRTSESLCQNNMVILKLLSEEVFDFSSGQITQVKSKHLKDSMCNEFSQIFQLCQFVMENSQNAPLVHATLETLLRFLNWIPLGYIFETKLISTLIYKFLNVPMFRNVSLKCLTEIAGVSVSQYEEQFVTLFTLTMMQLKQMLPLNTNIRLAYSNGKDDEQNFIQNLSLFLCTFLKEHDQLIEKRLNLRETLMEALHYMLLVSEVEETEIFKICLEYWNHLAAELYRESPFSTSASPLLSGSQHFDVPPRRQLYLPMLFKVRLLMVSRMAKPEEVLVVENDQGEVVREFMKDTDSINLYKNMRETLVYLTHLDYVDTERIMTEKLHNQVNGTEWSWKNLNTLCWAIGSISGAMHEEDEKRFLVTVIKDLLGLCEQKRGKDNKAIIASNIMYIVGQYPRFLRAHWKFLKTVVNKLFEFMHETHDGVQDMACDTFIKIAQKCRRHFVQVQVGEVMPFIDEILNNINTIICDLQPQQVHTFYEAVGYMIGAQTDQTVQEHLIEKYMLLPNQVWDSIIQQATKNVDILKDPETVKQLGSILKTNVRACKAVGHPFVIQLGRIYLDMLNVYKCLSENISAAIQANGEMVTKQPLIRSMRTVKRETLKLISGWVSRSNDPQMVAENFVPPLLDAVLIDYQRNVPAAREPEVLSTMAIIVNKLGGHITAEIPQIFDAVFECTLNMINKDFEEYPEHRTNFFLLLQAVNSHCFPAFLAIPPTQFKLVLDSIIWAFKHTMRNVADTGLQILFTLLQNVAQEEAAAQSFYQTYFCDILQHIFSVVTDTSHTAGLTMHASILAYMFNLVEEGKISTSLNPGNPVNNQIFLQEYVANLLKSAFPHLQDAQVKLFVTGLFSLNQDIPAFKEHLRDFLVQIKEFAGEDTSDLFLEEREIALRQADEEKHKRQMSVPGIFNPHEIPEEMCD

Exportin-1 [3] = biological target: T1, Exportin-1; experiment: Inhibition of XPO1 in human MOLT-16 cells; assay type: cell-based
RS4-11 = experiment: Antiproliferative activity against human RS4-11 cells assessed as […]; assay type: functional, cell-based
[4] = biological target: Hepatocyte growth factor receptor (Homo sapiens, UniProt P08581); experiment: Inhibition of c-Met (unknown origin)
HCT-116 = experiment: Antiproliferative activity against human HCT-116 cells assessed as inhibition of cell growth; assay type: functional, cell-based
[5] = biological target: Isocitrate dehydrogenase [NADP], mitochondrial (Homo sapiens, UniProt P48735); experiment: Inhibition of IDH2 (unknown origin)
Isocitrate dehydrogenase [NADP], mitochondrial, sequence (P48735 whole entry): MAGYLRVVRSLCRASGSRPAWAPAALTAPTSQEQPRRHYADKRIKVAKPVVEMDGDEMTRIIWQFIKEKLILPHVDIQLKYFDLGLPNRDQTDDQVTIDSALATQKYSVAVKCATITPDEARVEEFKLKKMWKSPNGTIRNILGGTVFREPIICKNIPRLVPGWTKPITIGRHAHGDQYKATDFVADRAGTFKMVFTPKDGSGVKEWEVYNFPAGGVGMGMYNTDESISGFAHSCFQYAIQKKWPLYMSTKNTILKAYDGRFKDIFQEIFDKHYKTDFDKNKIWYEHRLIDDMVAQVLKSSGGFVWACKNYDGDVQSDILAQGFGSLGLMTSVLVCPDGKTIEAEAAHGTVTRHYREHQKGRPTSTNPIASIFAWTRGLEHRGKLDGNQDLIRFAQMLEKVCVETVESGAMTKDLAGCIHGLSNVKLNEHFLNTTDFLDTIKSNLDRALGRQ

[6] = Inhibition of wild type FTase (unknown origin); design: species or system Homo sapiens
GTPase KRas [7] = biological target: T2, GTPase KRas (Homo sapiens, UniProt P01116); experiment: Inhibition of K-Ras (unknown origin)
T2 sequence (P01116 whole entry): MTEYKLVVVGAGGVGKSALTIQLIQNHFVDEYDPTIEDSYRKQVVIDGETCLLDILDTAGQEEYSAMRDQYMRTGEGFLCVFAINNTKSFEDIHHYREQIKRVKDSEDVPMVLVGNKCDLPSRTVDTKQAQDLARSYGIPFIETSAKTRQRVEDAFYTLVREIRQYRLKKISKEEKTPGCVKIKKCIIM

GTPase HRas = GTPase HRas (Homo sapiens, UniProt P01112); experiment: Inhibition of H-Ras (unknown origin)
GTPase HRas, sequence (P01112 whole entry): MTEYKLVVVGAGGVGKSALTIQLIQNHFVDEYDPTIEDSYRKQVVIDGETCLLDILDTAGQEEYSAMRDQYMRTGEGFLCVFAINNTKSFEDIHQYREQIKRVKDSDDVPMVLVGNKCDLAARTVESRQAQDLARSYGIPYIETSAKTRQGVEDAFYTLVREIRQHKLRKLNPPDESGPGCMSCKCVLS

[8] = test system: Mycobacterium tuberculosis; experiment: microbe, parasite or virus in culture
[9] = test system: Mycobacterium tuberculosis; experiment: microbe, parasite or virus in culture; remark: listed apart in the source
Brain = experiment: Neuroprotective activity in Wistar rat brain homogenate assessed as inhibition of lipid peroxidation incubated for 10 mins by fluorometric analysis; assay type: functional, tissue-based
[10] = Cytotoxicity against human HBE cells assessed as inhibition of cell growth; assay type: toxicity, cell-based
Human betaherpesvirus 5 = experiment: Antiviral activity against HCMV infected in human NHDF cells assessed as reduction in virus plaque formation; assay type: functional, organism-based; settings: Human betaherpesvirus 5, NHDF
GTPase KRas [11] = biological target: T2, GTPase KRas; experiment: Inhibition of K-Ras in human NCI-H460 cells; assay type: cell-based
SW-620 = experiment: cells; settings: Homo sapiens
K562 = experiment: Antiproliferative activity against human K562 cells assessed as inhibition of cell growth; assay type: functional, cell-based
cells = settings: Homo sapiens, HAC15, 72 h
Aorta = experiment: Relaxation of pre-contracted rabbit aorta; assay type: functional, tissue-based; settings: Oryctolagus cuniculus
[12] = biological target: Soluble guanylate cyclase (Homo sapiens) (UniProt Q02153+O75343+P33402+Q02108); experiment: Stimulation of recombinant sGC (unknown origin) expressed in CHO cells assessed as formation of cGMP; assay type: cell-based; settings: filed as activator
Malme-3M = experiment: Antiproliferative activity against human Malme-3M cells assessed as inhibition of cell growth; assay type: functional, cell-based
Melanocortin receptor 4 = Melanocortin receptor 4 (Rattus norvegicus, UniProt P70596); experiment: Inhibition of rat MC4R
Melanocortin receptor 4, sequence (P70596 whole entry): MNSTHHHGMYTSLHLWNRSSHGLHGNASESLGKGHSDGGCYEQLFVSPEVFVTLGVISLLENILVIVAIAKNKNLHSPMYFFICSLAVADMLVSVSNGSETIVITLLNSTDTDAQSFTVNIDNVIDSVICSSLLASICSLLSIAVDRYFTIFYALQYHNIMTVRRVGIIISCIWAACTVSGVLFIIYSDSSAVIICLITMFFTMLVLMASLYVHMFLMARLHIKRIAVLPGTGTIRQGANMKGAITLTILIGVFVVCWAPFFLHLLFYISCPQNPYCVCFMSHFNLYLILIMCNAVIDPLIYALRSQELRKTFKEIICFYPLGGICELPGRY

RBL-2H3 = experiment: Antiproliferative activity against rat RBL-2H3 cells assessed as […]; assay type: functional, cell-based

Methionine synthase, sequence (Q99707 whole entry): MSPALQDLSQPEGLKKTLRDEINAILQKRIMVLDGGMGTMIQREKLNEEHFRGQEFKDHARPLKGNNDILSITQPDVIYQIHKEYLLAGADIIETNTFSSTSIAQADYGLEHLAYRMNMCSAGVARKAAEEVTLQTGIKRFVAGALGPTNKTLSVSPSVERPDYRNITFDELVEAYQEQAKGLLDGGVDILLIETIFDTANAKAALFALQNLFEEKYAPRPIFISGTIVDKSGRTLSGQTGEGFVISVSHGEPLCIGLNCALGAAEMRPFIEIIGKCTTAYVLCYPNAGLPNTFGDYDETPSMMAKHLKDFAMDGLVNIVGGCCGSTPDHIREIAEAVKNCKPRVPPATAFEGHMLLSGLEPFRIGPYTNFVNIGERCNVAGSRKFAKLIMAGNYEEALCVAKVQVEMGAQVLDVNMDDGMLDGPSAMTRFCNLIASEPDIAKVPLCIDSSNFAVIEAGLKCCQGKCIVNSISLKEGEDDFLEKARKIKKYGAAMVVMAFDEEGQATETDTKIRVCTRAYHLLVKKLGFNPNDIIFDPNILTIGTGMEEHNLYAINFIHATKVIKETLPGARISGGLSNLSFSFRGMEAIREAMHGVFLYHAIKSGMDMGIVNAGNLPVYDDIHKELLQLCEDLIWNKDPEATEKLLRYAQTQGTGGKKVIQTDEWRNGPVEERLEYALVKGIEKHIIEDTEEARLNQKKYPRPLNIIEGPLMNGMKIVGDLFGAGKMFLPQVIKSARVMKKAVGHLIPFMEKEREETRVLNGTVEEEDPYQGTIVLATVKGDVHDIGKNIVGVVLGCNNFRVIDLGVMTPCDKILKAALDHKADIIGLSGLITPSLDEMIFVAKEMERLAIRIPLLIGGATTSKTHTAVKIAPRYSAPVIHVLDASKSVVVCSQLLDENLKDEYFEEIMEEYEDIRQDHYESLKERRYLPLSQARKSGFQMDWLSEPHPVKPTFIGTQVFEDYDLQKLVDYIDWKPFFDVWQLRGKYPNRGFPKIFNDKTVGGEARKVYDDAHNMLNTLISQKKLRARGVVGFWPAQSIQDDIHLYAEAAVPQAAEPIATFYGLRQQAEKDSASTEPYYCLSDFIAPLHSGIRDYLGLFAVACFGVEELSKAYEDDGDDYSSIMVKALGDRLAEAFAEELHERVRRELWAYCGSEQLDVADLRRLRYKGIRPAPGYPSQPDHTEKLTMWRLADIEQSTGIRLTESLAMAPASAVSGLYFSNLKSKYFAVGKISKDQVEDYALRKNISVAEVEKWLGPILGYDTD

In the case of `O=C1c2ccccc2CN1C1CCN(CCC(c2ccccc2)c2ccccc2)CC1`, the EC50 (HepG2) is reported as 2.2 nM and the IC50 (Methionine synthase) is reported as 2.2 nM.

`O=C(c1c[nH]c2ccccc2c1=O)N(Cc1ccccc1)Cc1ccccc1` showed an EC50 [1] of 2.1 nM.

Work on `COc1cc(-c2ncn(/C=C\C(=O)OC(C)C)n2)cc(C(F)(F)F)c1` yielded an IC50 (Exportin-1 [2]) of 16 nM and an IC50 (Exportin-1 [3]) of 112 nM.

`CC1(C)CCC(c2ccc(Cl)cc2)=C(CN2CCN(c3ccc(C(=O)NS(=O)(=O)c4ccc(NCC5CCOCC5)c([N+](=O)[O-])c4)c(Oc4cnc5[nH]ccc5c4)c3)CC2)C1` showed an EC50 (RS4-11) of 8 nM.

For `Cc1[nH]c(/C=C2\C(=O)Nc3ccc(S(=O)(=O)C(C)c4c(Cl)cccc4Cl)cc32)c(C)c1C(=O)N1CCC[C@@H]1CN1CCCC1` (some centres undefined), the IC50 [4] was 9 nM.

With `CC(C)(C)Nc1nc(Nc2ccccc2)nc(-c2ccccc2)n1` the IC50 (HCT-116) was 530 nM and the IC50 [5] was 100 nM.

With `O=C(Cc1ccncc1)N1CCN([C@H]2c3ccc(Cl)cc3CCc3cccnc32)CC1` the IC50 [6] was 490 nM, the IC50 (GTPase KRas [7]) was 5.2 nM and the IC50 (GTPase HRas) was 1.9 nM.

Work on `COc1nc2ccc(Br)cc2cc1[C@@H](c1ccccc1)[C@@](O)(CCN(C)C)c1cccc2ccccc12` [BEDAQUILINE] yielded an MIC [8] of 0.03 µg/mL (≈ 0.054 µM) and an MIC [9] of 0.03 µg/mL (≈ 0.054 µM).

`CC1=NN(c2ccccc2)C(=O)C1` [EDARAVONE] gave an IC50 (Brain) of 18200 nM.

`NNC(=O)c1ccncc1` [ISONIAZID] showed an MIC [8] of 0.12 µg/mL (≈ 0.875 µM) and an MIC [9] of 0.12 µg/mL (≈ 0.875 µM).

`CC(C)(C)c1cc(C(C)(C)C)c(NC(=O)c2c[nH]c3ccccc3c2=O)cc1O` [IVACAFTOR] gave an EC50 [10] of 236 nM and an EC50 [1] of 25 nM.

`COc1cccc(N2CCN(C3=Nc4c(F)cccc4[C@H](CC(=O)O)N3c3cc(C(F)(F)F)ccc3OC)CC2)c1` [LETERMOVIR] showed an EC50 (Human betaherpesvirus 5) of 4.5 nM and an EC90 (Human betaherpesvirus 5) of 6.1 nM.

With `O=C(NC1CCN(CCCCC2(C(=O)NCC(F)(F)F)c3ccccc3-c3ccccc32)CC1)c1ccccc1-c1ccc(C(F)(F)F)cc1` [LOMITAPIDE] the EC50 (HepG2) was 0.8 nM and the IC50 (Methionine synthase) was 0.5 nM.

For `NC(=O)N1CCC(CC(=O)N2CCC([C@H]3c4ncc(Br)cc4CCc4cc(Cl)cc(Br)c43)CC2)CC1` [LONAFARNIB], the IC50 (GTPase KRas [11]) was 40 nM.

With `O=C(c1cc(Cc2n[nH]c(=O)c3ccccc23)ccc1F)N1CCN(C(=O)C2CC2)CC1` [OLAPARIB] the IC50 (SW-620) was 6 nM.

`COC(=O)C[C@](O)(CCCC(C)(C)O)C(=O)O[C@@H]1C(OC)=C[C@]23CCCN2CCc2cc4c(cc2[C@H]13)OCO4` [OMACETAXINE MEPESUCCINATE] showed an IC50 (K562) of 21 nM.

Work on `N#Cc1ccc([C@H]2CCc3cncn32)c(F)c1` [OSILODROSTAT] yielded an IC50 (cells) of 35 nM.

With `CO[C@H]1/C=C/O[C@@]2(C)Oc3c(C)c(O)c4c(O)c(c(/C=N/N5CCN(C)CC5)c(O)c4c3C2=O)NC(=O)/C(C)=C\C=C\[C@H](C)[C@H](O)[C@@H](C)[C@@H](O)[C@@H](C)[C@H](OC(C)=O)[C@@H]1C` [RIFAMPIN] the MIC [8] was 0.5 µg/mL (≈ 0.608 µM) and the MIC [9] was 0.5 µg/mL (≈ 0.608 µM).

Work on `COC(=O)N(C)c1c(N)nc(-c2nn(Cc3ccccc3F)c3ncccc23)nc1N` [RIOCIGUAT] yielded an IC50 (Aorta) of 120 nM and an MEC [12] of 0.03 µM.

For `Cn1cnc2c(F)c(Nc3ccc(Br)cc3Cl)c(C(=O)NOCCO)cc21` [SELUMETINIB], the IC50 (Malme-3M) was 59 nM.

`CC(=O)N[C@@H](CCCNC(=N)N)C(=O)N[C@H]1CSSC[C@@H](C(N)=O)NC(=O)[C@H](Cc2c[nH]c3ccccc23)NC(=O)[C@H](CCCNC(=N)N)NC(=O)[C@@H](Cc2ccccc2)NC(=O)[C@H](Cc2c[nH]cn2)NC(=O)[C@@H](C)NC1=O` [SETMELANOTIDE] showed an EC50 (Melanocortin receptor 4) of 0.28 nM.

`CCOC(=O)[C@@H](N)Cc1ccc(-c2cc(O[C@H](c3ccc(Cl)cc3-n3ccc(C)n3)C(F)(F)F)nc(N)n2)cc1` [TELOTRISTAT ETIPRATE] showed an IC50 (RBL-2H3) of 400 nM.
